Patent US9216171B2, “Methods of preventing ischemic injury using peripheral nociceptive stimulation” (University of Cincinnati, priority 2009, dated 2015)

What was measured:
Format in all cases: in vivo
[1] = biological target: T1, TRPV1 (Mus musculus, UniProt Q704Y3); test: Topical capsaicin before ischemia/reperfusion in wild-type vs TRPV1 knock-out mice; conditions: capsaicin topically administered to the abdomen prior to ischemia and reperfusion; FIG. 2E
T1 construct: data from wild-type mice topically treated with capsaicin administered to the abdomen prior to surgical induction of ischemia and reperfusion; from tissue; host or cells: Living wild-type mouse; abdominal skin nociceptors (C-fibers), in vivo
T1 sequence (Q704Y3 whole entry, the tested form may be a part): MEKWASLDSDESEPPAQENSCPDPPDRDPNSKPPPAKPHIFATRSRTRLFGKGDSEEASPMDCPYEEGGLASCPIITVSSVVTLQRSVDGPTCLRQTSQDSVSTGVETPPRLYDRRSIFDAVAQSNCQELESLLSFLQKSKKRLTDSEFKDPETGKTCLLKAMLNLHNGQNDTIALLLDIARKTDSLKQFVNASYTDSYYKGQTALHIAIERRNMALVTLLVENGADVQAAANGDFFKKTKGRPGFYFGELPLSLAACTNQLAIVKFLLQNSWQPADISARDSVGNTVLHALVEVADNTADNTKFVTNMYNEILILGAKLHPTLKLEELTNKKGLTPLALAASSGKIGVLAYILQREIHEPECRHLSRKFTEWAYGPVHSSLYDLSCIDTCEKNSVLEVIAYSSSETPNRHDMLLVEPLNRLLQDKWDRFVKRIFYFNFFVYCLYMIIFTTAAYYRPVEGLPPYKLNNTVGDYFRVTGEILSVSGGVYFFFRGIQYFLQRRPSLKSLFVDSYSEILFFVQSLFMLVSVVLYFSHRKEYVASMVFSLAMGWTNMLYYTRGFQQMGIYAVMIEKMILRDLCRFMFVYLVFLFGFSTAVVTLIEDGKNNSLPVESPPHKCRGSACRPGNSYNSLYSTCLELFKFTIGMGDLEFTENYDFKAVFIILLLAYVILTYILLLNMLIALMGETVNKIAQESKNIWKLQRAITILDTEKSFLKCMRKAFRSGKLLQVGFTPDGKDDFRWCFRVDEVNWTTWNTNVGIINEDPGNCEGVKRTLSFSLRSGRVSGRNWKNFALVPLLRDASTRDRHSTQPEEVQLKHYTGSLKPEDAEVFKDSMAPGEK
Text: FIG. 2, panel E presents a graph of results obtained from wild-type (WT) and TRPV1 knock-out (TRPVKO) mice using topical capsaicin as the cardioprotective stimulus. Infarct size as a percent of risk region is presented on the y-axis. The first bar presents data from wild-type mice topically treated with capsaicin administered to the abdomen prior to surgical induction of ischemia and reperfusion (WT, Capsaicin, hatched bar). The second bar presents data from TRPV1 knockout mice topically treated with capsaicin administered to the abdomen prior to surgical induction of ischemia and reperfusion (TRPVKO, Capsaicin, dotted bar). The third bar presents data from TRPV1 knockout mice subjected to sham treatment prior to surgical induction of ischemia and reperfusion (TRPVKO No capsaicin, empty bar).
Mice were anesthetized with sodium pentobarbital (90 mg/kg ip), intubated with PE 90 tubing and ventilated using a mouse miniventilator (Harvard Apparatus, Holliston, Mass.). All mice were continuously monitored by electrocardiography (ECG) (DigiMed Sinus Rhythm Analyzer, Micro-Med Inc), and mice without evidence of ischemia and timely reperfusion were excluded from the studies. […]

[2] = test system: murine ischemia/reperfusion model of myocardial infarction; test: Mouse ischemia/reperfusion model: infarct size after remote topical TRP agonist
Procedure: A previously described mouse model of ischemia and reperfusion (I/R) injury in vivo was used (Ren et al. (2004) J. Surg Res. 121(1):120-129; Fan et al (2005) Circulation 111(14):1792-1799; Zhou et al (2007) Cardiovascular Research 75(3) 487-497; and Diwan et al (2007) J. Clinical Investigation 117(10):2825-2833, herein incorporated by reference in their entirety). Mice were anesthetized with sodium pentobarbital (90 mg/kg ip), intubated with PE 90 tubing and ventilated using a mouse miniventilator (Harvard Apparatus, Holliston, Mass.). All mice were continuously monitored by electrocardiography ([…] Sinus Rhythm Analyzer, Micro-Med Inc), and mice without evidence of ischemia and timely reperfusion were excluded from the studies. A lateral thoracotomy (1.5 cm incision between the second and third ribs was performed to provide exposure of the left anterior descending coronary artery (LAD). Vascular bundles in the vicinity were coagulated using a microcoagulator (Medical Industries Inc, St. Petersburg Fla.). An 8-0 nylon suture was placed around the LAD 2-3 mm from the tip of the left auricle and a piece of soft silicon tubing (0.64 mm ID, 1.19 mm OD) was placed over the artery. Coronary occlusion was achieved by tightening and tying the suture. Coronary occlusion was for 45 minutes, unless indicated otherwise. At the end of the occlusion, the suture was untied and left in place. Ischemia was confirmed by visual observation of cyanosis and by continuous ECG monitoring (QRS complex widening, T wave inversion and ST segment changes); reperfusion was confirmed by reversal of these effects. Results of one such experiment are presented in FIG. 1, panel A. Mice were euthanized either 4 or 24 hours after reperfusion and infarct size determination and imaging were performed by previously described methods (Ren et al. (2004) J. Surg Res. 121(1):120-129 and Guo et al (1998) Am J. Physiology 275 (4 Pt 2):[…]-1387, herein incorporated by reference in their entirety). Mice were anesthetized with pentobarbital sodium (35 mg/kg iv) and euthanized with an intravenous bolus of KCl. The heart was excised and perfused with Krebs-Henseleit solution through an aortic cannula (22 or 23-gauge needle) using a Langerdorff apparatus. To delineate infarcted from viable myocardium, the heart was then perfused with a 1% solution of 2,3,5-triphenyltetrazolium chloride (TTC) in phosphate buffer (pH 7.4, 37° C.) at a pressure of […] (approx. 3 ml over 3 min). […] Infarct size was determined by the method of Fishbein et al (1981) Am Heart J 101(5):593-600, herein incorporated by reference in its entirety. […] Infarct size was determined as described elsewhere herein. […]

[3] = test system: murine ischemia/reperfusion model of myocardial infarction; test: Blockade of the cardioprotection by remote electrical stimulation in mouse ischemia/reperfusion model
Procedure: A previously described mouse model of ischemia and reperfusion (I/R) injury in vivo was used (Ren et al. (2004) J. Surg Res. 121(1):120-129; Fan et al (2005) Circulation 111(14):1792-1799; Zhou et al (2007) Cardiovascular Research 75(3) 487-497; and Diwan et al (2007) J. Clinical Investigation 117(10):2825-2833, herein incorporated by reference in their entirety). Mice were anesthetized with sodium pentobarbital (90 mg/kg ip), intubated with PE 90 tubing and ventilated using a mouse miniventilator (Harvard Apparatus, Holliston, Mass.). All mice were continuously monitored by electrocardiography (ECG) (DigiMed Sinus Rhythm Analyzer, Micro-Med Inc), and mice without evidence of ischemia and timely reperfusion were excluded from the studies.
A lateral thoracotomy (1.5 cm incision between the second and third ribs was performed to provide exposure of the left anterior descending coronary artery (LAD). Vascular bundles in the vicinity were coagulated using a microcoagulator (Medical Industries Inc, St. Petersburg Fla.). An 8-0 nylon suture was placed around the LAD 2-3 mm from the tip of the left auricle and a piece of soft silicon tubing (0.64 mm ID, 1.19 mm OD) was placed over the artery. Coronary occlusion was achieved by tightening and tying the suture. Coronary occlusion was for 45 minutes, unless indicated otherwise. At the end of the occlusion, the suture was untied and left in place. Ischemia was confirmed by visual observation of cyanosis and by continuous ECG monitoring (QRS complex widening, T wave inversion and ST segment changes); reperfusion was confirmed by reversal of these effects.
Mice were euthanized either 4 or 24 hours after reperfusion and infarct size determination and imaging were performed by previously described methods (Ren et al. (2004) J. Surg Res. 121(1):120-129 and Guo et al (1998) Am J. Physiology 275 (4 Pt 2):H1375-1387, herein incorporated by reference in their entirety). Mice were anesthetized with pentobarbital sodium (35 mg/kg iv) and euthanized with an intravenous bolus of KCl. The heart was excised and perfused with Krebs-Henseleit solution through an aortic cannula (22 or 23-gauge needle) using a Langerdorff apparatus. To delineate infarcted from viable myocardium, the heart was then perfused with a 1% solution of 2,3,5-triphenyltetrazolium chloride (TTC) in phosphate buffer (pH 7.4, 37° C.) at a pressure of […] (approx. 3 ml over 3 min). To delineate the occluded-reperfused coronary vascular bed, the coronary artery was then tied at the site of the previous occlusion and the aortic root was perfused with a 5% solution of phthalo blue dye in normal saline. […] Infarct size was determined by the method of Fishbein et al (1981) Am Heart J 101(5):593-600, herein incorporated by reference in its entirety. […]

For COc1cc(CNC(=O)CCCC/C=C/C(C)C)ccc1O [capsaicin, (6E)-N-[(4-Hydroxy-3-methoxyphenyl)methyl]-8-methyl-6-nonenamide], the “infarct size as a percent of risk region, WT vs TRPVKO” value [1] was “reduced myocardial infarct size as compared to TRPVKO mice”, the “reduction of infarct size (infarct size as a percent of the risk region)” value ([2]; remote pre-conditioning, stimulus given 15 minutes prior to the ischemia, abdominal topical, vs sham, n=6, P<0.01) was 85% and the “infarct size as a percent of the risk region” value ([2]; remote pre-treatment prior to ischemia/reperfusion, vs sham, FIG. 1C) was “substantial reduction in infarct size”. The “infarct size as a percent of risk area” value ([2]; topical application during ischemia (conditioning) or after reperfusion (postCON), vs sham, p<0.01, FIG. 10) was “significantly reduces infarct size”.

COc1ccc2c(c[n+](C)c3c4cc5c(cc4ccc23)OCO5)c1OC [chelerythrine] was tested, and the “inhibition of ischemia-related tissue damage (infarct size as a percentage of risk region)” value ([3]; chelerythrine plus ES vs vehicle plus ES, FIG. 3C) was “reduced inhibition of ischemia-related tissue damage”.

In the case of CCN(CC)CC(=O)Nc1c(C)cccc1C [lidocaine], the “infarct size as a percent of risk region” value ([3]; 2% lidocaine prior to electrical stimulation (ES) and ischemia, vs vehicle ES, FIG. 2A) is reported as “significantly higher percentage of risk region than infarction size in vehicle and ES treated mice” and the “cardioprotective effect of the remote electrical stimulation” value ([3]; 10 μl lidocaine (2%) s.c. pre-treatment, 45 min occlusion) is reported as “no significant cardioprotection relative to controls”.

In the case of CCCN(CCC)S(=O)(=O)c1ccc(C(=O)O)cc1 [probenecid], the “infarct size as a percent of risk region” value ([2]; topical probenecid application vs sham/control animals, p<0.07, FIG. 11) is reported as “significantly reduced”.

CC(C)NCC(O)COc1cccc2ccccc12 (stereo not drawn) [propanolol] was tested, and the “infarct size as a percentage of risk region” value ([3]; propanolol plus ES vs vehicle plus ES, FIG. 3B) was “significantly higher than infarct size in control mice treated only with the vehicle and electrically stimulated”.
